ChEMBL document CHEMBL3507680, “University of Dundee, Gates Library screen for HepG2 cell viability”

Assay: Human HepG2 cell viability assay in 384 well format
Assay type: toxicity, cell-based
Set-up: dose 125 nL, time 70.5 hour; cytotoxicity at 70.5 h: concentration not given beside the values
Settings: HepG2 cells, read-out: Inhibition
With `CCC(C)CN1CCC(n2cc(C3CCCC3)nn2)CC1` (stereo not drawn) the cytotoxicity at 70.5 h was 0.72%.
With `CCc1cc(N[C@H]2CC[C@@H](N)CC2)n2nc(C)c(C)c2n1` the cytotoxicity at 70.5 h was -7.71%.
For `COc1cccc(Cn2cc(C3=CCN(CC(=O)N(C)C)CC3)cn2)c1`, the cytotoxicity at 70.5 h was -16.4%.
Work on `CC(C)(C)c1ccc(-c2n[nH]c3c2CN(CC2CCOC2)CC3)cc1` (stereo not drawn) yielded a cytotoxicity at 70.5 h of -12%.
Compound `Cc1cc(CN2CCC(CNC(=O)CN3CCCCCC3)C2)[nH]n1` (stereo not drawn) has a cytotoxicity at 70.5 h of 14.2%.
For `CCCNC(=O)c1ccc(S(=O)(=O)NC2(COC)CCCC2)cc1`, the cytotoxicity at 70.5 h was -5.28%.
With `Cn1ccc2c(-c3cc(N4CCOCC4)ncn3)ccnc21` the cytotoxicity at 70.5 h was -6.11%.
With `CN(C)C(=O)CN1C(=O)[C@H]2CC[C@@H]1CN(Cc1ccccc1C#N)C2` the cytotoxicity at 70.5 h was -4.2%.
With `COCCN1CCC(CN(CC2CCCO2)C(=O)CNC(C)=O)CC1` (stereo not drawn) the cytotoxicity at 70.5 h was -1.99%.
`CCCN(Cc1nc2ccccc2[nH]1)Cc1ccccc1OC` showed a cytotoxicity at 70.5 h of -4%.
`CCC[C@@H]1CN(C(=O)CCc2ccco2)C[C@H]1NS(C)(=O)=O` gave a cytotoxicity at 70.5 h of 29%.
Work on `CC(C)=CCn1ncc(N2CCCCC2)cc1=O` yielded a cytotoxicity at 70.5 h of -3.13%.
With `Nc1nc2c(c(N3CCCC(c4nnc5ccccn45)C3)n1)CCNC2` (stereo not drawn) the cytotoxicity at 70.5 h was -2.11%.
Work on `CCc1oc(C(=O)N(C)Cc2nonc2C)cc1CN(CC)CC` yielded a cytotoxicity at 70.5 h of -16.6%.
In the case of `CCN1CC(C(=O)N2CCN(c3nsc4ccccc34)CC2)CCC1=O` (stereo not drawn), the cytotoxicity at 70.5 h is reported as 19.6%.
Work on `COc1cccc(C(C(=O)O)N2CCSCC2)c1F` (stereo not drawn) yielded a cytotoxicity at 70.5 h of 13%.
`Cc1nc(N2CCC(C(O)c3nccn3C)CC2)c2c(C)noc2n1` (stereo not drawn) showed a cytotoxicity at 70.5 h of 20.2%.
Work on `Cc1c(-c2cnn(C)c2)nc(N)c(C#N)c1-c1ccc(CO)o1` yielded a cytotoxicity at 70.5 h of 2.44%.
Work on `CC1(C)CNC(=O)c2nc(CCCN3CCCC3)[nH]c2C1` yielded a cytotoxicity at 70.5 h of -8.44%.
Work on `CC(C)[C@H]1CN(c2ccnc(N)n2)C[C@@H]1NC(=O)C1(C#N)CCOCC1` yielded a cytotoxicity at 70.5 h of -9.5%.
With `CC(C)c1nnsc1CNC(=O)C1CCCN(C(=O)N(C)C)C1` (stereo not drawn) the cytotoxicity at 70.5 h was -11.2%.
With `CN(Cc1noc2c1CCCC2)C(=O)C1CCOc2ccccc2C1` (stereo not drawn) the cytotoxicity at 70.5 h was -3.46%.
Work on `CCc1cc(N(C)Cc2noc(C(C)C)n2)nc(N2CCOCC2)n1` yielded a cytotoxicity at 70.5 h of -13.5%.
`CCCC1(CO)CCCN(C(=O)CN2CCN(CC)CC2)C1` (stereo not drawn) gave a cytotoxicity at 70.5 h of -24.3%.
For `CSCCC(=O)N[C@H]1CC[C@H](Nc2nccc(-c3ccncc3)n2)C1`, the cytotoxicity at 70.5 h was 23.8%.
Work on `CCc1csc(CNc2nc3c(s2)c(C)nn3C)n1` yielded a cytotoxicity at 70.5 h of 10.5%.
In the case of `Cc1cc(N2CCC(O)(C(=O)O)CC2)nc2ccccc12`, the cytotoxicity at 70.5 h is reported as -11%.
With `CCC(CO)N(Cc1cccs1)C(=O)CSC` (stereo not drawn) the cytotoxicity at 70.5 h was 11.9%.
In the case of `Cc1nccc(N[C@H]2CN(C(=O)CN3CCCC3=O)C[C@@H]2C(C)C)n1`, the cytotoxicity at 70.5 h is reported as -19.5%.
`CCCn1ncc(CN2CCCC(C(=O)c3ccc(SC)cc3)C2)c1C` (stereo not drawn) gave a cytotoxicity at 70.5 h of -9.31%.
`CN(Cc1ccno1)C(=O)c1cccc(CC2CCNCC2)c1` gave a cytotoxicity at 70.5 h of 6.56%.
`CCN1CCCC1CNC(=O)c1cc(COc2ccccc2F)[nH]n1` (stereo not drawn) gave a cytotoxicity at 70.5 h of -4.57%.
Compound `Cc1cc(C)c2c(N3CCC(C(=O)N4CCCC4)CC3)ncnc2n1` has a cytotoxicity at 70.5 h of -7.41%.
In the case of `CC(C)N1CC2(CCCN(Cc3noc(C4CCCC4)n3)C2)CCC1=O` (stereo not drawn), the cytotoxicity at 70.5 h is reported as 3.06%.
With `CCc1cc(C(=O)N2CCC3(CCCN(CCOC)C3=O)C2)cs1` (stereo not drawn) the cytotoxicity at 70.5 h was -9.21%.
In the case of `CCN1CC2(CCC1=O)CCN(Cc1nncn1C(C)C)CC2`, the cytotoxicity at 70.5 h is reported as -5.12%.
Compound `CCCOCC(=O)N1CCc2c(cccc2S(=O)(=O)N2CCOCC2)C1` has a cytotoxicity at 70.5 h of 19.4%.
Work on `Cc1nccc(-c2ccccc2)c1C(=O)N1CCC2(CN(C)C(=O)O2)C1` (stereo not drawn) yielded a cytotoxicity at 70.5 h of -5.07%.
Compound `CCc1ncc(C(=O)N2CC(Oc3ccccc3Cl)C2)cn1` has a cytotoxicity at 70.5 h of 10.7%.
In the case of `O=C(Cc1ccncc1)N1C[C@H]2CC[C@@H]1CN(Cc1cccnc1)C2`, the cytotoxicity at 70.5 h is reported as 8.28%.
Work on `CCC(C(=O)NCc1nc(C)cc(C(F)(F)F)n1)n1cccn1` (stereo not drawn) yielded a cytotoxicity at 70.5 h of -11.3%.
`COc1cccc(-c2n[nH]c3c2CN(C(=O)c2cccc(=O)[nH]2)CC3)c1` showed a cytotoxicity at 70.5 h of -6.52%.
`CCN(CC1CCCN(CCc2cccc(OC)c2)C1)C(=O)CO` (stereo not drawn) gave a cytotoxicity at 70.5 h of -0.648%.
Compound `CN1CCN(C[C@@H]2CN(C(=O)NCC3CCCCC3)C[C@@H]2CO)CC1` has a cytotoxicity at 70.5 h of 27.6%.
Work on `CCC1(C(=O)O)CCCN(C(=O)c2ccc(N3CCN(C)CC3)cc2)C1` (stereo not drawn) yielded a cytotoxicity at 70.5 h of 21.4%.
In the case of `CCCc1cc(C(=O)N2C[C@H]3CCC[C@@]3(CO)C2)[nH]n1`, the cytotoxicity at 70.5 h is reported as -7.84%.
`CC(C)Cc1cc(-c2cc(-c3ccc[nH]3)nc(N)c2C#N)n[nH]1` showed a cytotoxicity at 70.5 h of 21.1%.
Compound `CCCSCC(=O)N1C[C@@H](NC(C)=O)[C@H](c2ccc(OC)cc2)C1` has a cytotoxicity at 70.5 h of -19.4%.
With `O[C@H]1[C@H](n2cc(-c3cncnc3)nn2)c2ccccc2C12CCNCC2` the cytotoxicity at 70.5 h was -5.02%.
`CC(C)=CCN1C[C@H]2CC[C@@H]1CN(CCC(=O)NCc1ccco1)C2` gave a cytotoxicity at 70.5 h of 30.2%.
Compound `c1ccc(C2CCCN2C2CSCCSC2)nc1` (stereo not drawn) has a cytotoxicity at 70.5 h of -4.87%.
`CCC(CO)N(Cc1ccco1)C(=O)c1cccnc1NC` (stereo not drawn) showed a cytotoxicity at 70.5 h of -2.71%.
`CCSCCC(=O)NCc1cc2n(n1)CCN(C(=O)N(C)C)C2` gave a cytotoxicity at 70.5 h of -6.68%.
`CC(=O)c1ccc(N2CCC(CO)(CCOc3ccccc3)CC2)nc1` gave a cytotoxicity at 70.5 h of -11%.
`Cc1nccnc1N1CC[C@@H](NC(=O)c2cnccn2)[C@H](O)C1` showed a cytotoxicity at 70.5 h of -8.55%.
`COc1ccc(OCc2nc(C(=O)N3CC[C@H](O)[C@@H](O)C3)co2)cc1` gave a cytotoxicity at 70.5 h of -8.88%.
Work on `Cc1nc(N2CC[C@@H](NC(=O)c3cnccn3)[C@H](O)C2)c2ccsc2n1` yielded a cytotoxicity at 70.5 h of -3.33%.
`COC(=O)CCC(=O)N1CCc2[nH]nc(-c3ccc(F)c(F)c3)c2C1` gave a cytotoxicity at 70.5 h of -8.06%.
For `COCCn1ccnc1C1CCCN(C(=O)CSCC2CC2)C1` (stereo not drawn), the cytotoxicity at 70.5 h was -3.02%.
Compound `Cc1ccc([C@@H]2CN(S(=O)(=O)c3cccs3)C[C@H]2N(C)C)cc1` has a cytotoxicity at 70.5 h of -2.64%.
For `CN1CCN(C[C@@H]2CN(C(=O)c3ccccc3C#N)C[C@@H]2CO)CC1`, the cytotoxicity at 70.5 h was 13.9%.
`CC(C)C(=O)NCC(=O)N(C)C1CCCN(CCc2ccccc2)C1` (stereo not drawn) showed a cytotoxicity at 70.5 h of -5.89%.
In the case of `CC(=O)c1cc(CN2C[C@H]3CC[C@@H]2CN(S(=O)(=O)N(C)C)C3)cs1`, the cytotoxicity at 70.5 h is reported as 12.5%.
Compound `Cc1cc(CN2CCN(C(=O)C(C)C)[C@@H]3CS(=O)(=O)C[C@@H]32)ccc1F` has a cytotoxicity at 70.5 h of -2.32%.
With `Cc1cc(CC(=O)N2CCCC2c2nc(C(C)C)no2)on1` (stereo not drawn) the cytotoxicity at 70.5 h was 5.26%.
`CCOCC(=O)N1C[C@@H](NC(C)=O)[C@H](c2ccc(OC)cc2)C1` gave a cytotoxicity at 70.5 h of -8.31%.
`CCC(O)CNC(=O)c1coc(COc2ccc3sc(C)nc3c2)n1` (stereo not drawn) showed a cytotoxicity at 70.5 h of 12.2%.
`Cc1cc(N(C)Cc2cc(C)on2)n2nc(C)c(C)c2n1` gave a cytotoxicity at 70.5 h of -5.61%.
`O=C(CCN1CCCC1=O)NCc1cccnc1Oc1ccccc1` showed a cytotoxicity at 70.5 h of -3.36%.
Compound `Cc1nsc(NC(=O)N2CCN(Cc3ccc(F)cc3)C(=O)C2)n1` has a cytotoxicity at 70.5 h of -13.5%.
In the case of `COCCNc1nc(C2CCCC2)nc2c1CCNCC2`, the cytotoxicity at 70.5 h is reported as 2.05%.
Compound `CC(C)C(=O)NCCNc1nccc(-c2cc(C(=O)O)ccn2)n1` has a cytotoxicity at 70.5 h of -0.446%.
`CCNC(=O)N1CCN(Cc2nc3ccccc3[nH]2)[C@@H]2CS(=O)(=O)C[C@@H]21` showed a cytotoxicity at 70.5 h of -9.34%.
Compound `N#Cc1c(SCCN2CCCCC2)sc2c(O)cc(O)nc12` has a cytotoxicity at 70.5 h of 17.9%.
Work on `CCc1nc(-c2cccc(C(=O)O)c2)no1` yielded a cytotoxicity at 70.5 h of 16.3%.
For `CSCCC(NC(=O)c1nc(SC)ncc1Cl)C(=O)O` (stereo not drawn), the cytotoxicity at 70.5 h was -0.19%.
In the case of `Cc1cc(C)n(C(=O)Cn2nc(C)c(I)c2C)n1`, the cytotoxicity at 70.5 h is reported as -7.22%.
Compound `CC1=C(C#N)C(=O)NC(=O)/C1=C\c1c(C)nn(-c2ccc(C)cc2)c1O` has a cytotoxicity at 70.5 h of -2.65%.
